Source: ChEMBL document CHEMBL1212736, “Prevalence and clonal characterization of Streptococcus pyogenes clinical isolates with reduced fluoroquinolone susceptibility in Spain” (2010)
≈ marks a conversion by molar mass, not a printed value. Calls of active or inactive are those of the source. The rule behind the calls is not given here.

Key:
Streptococcus pyogenes [1] = assay: Antimicrobial activity against strong ciprofloxacin-resistant Streptococcus pyogenes at 10 ug by disk diffusion assay; type: functional; conditions: read-out: IZ
Streptococcus pyogenes [2] = assay: Antimicrobial activity against mild ciprofloxacin-resistant Streptococcus pyogenes by agar dilution method; type: functional
Streptococcus pyogenes [3] = assay: Antimicrobial activity against strong ciprofloxacin-resistant Streptococcus pyogenes by agar dilution method; type: functional
Streptococcus pyogenes [4] = assay: Antimicrobial activity against ciprofloxacin-susceptible Streptococcus pyogenes harboring Asp91/Asn mutation in parC gene by agar dilution method; type: functional
Streptococcus pyogenes [5] = assay: Antimicrobial activity against strong ciprofloxacin-resistant Streptococcus pyogenes assessed as 1 fold decrease in compound MIC by agar dilution method; type: functional, organism-based
Streptococcus pyogenes [6] = assay: Antimicrobial activity against mild ciprofloxacin-resistant Streptococcus pyogenes assessed as 1 fold decrease in compound MIC by agar dilution method; type: functional, organism-based
Streptococcus pyogenes [7] = assay: Antimicrobial activity against ciprofloxacin-susceptible Streptococcus pyogenes harboring Asp91/Asn mutation in parC gene assessed as 1 fold decrease in compound MIC by agar dilution method; type: functional, organism-based
Streptococcus pyogenes [8] = assay: Antimicrobial activity against macrolide-resistant Streptococcus pyogenes emm77/ST399/T28 expressing tetM gene by agar dilution method; type: functional

SMILES	zone of inhibition at 10 µg/disc (Streptococcus pyogenes [1])	MIC50 (Streptococcus pyogenes [2])	MIC90 (Streptococcus pyogenes [2])	MIC (Streptococcus pyogenes [3])	MIC50 (Streptococcus pyogenes [4])	MIC90 (Streptococcus pyogenes [4])	Activity (Streptococcus pyogenes [5])	Activity (Streptococcus pyogenes [6])	Activity (Streptococcus pyogenes [7])	MIC (Streptococcus pyogenes [8])
CC1COc2c(N3CCN(C)CC3)c(F)cc3c(=O)c(C(=O)O)cn1c23 (configuration not stated) [OFLOXACIN]	0 mm	4 µg/mL (≈ 11.1 µM)	8 µg/mL (≈ 22.1 µM)	64 µg/mL (≈ 177 µM)	1 µg/mL (≈ 2.77 µM)	2 µg/mL (≈ 5.53 µM)				
CCn1cc(C(=O)O)c(=O)c2cc(F)c(N3CCNCC3)cc21 [NORFLOXACIN]	0 mm	32 µg/mL (≈ 100 µM)	> 32 µg/mL	64 µg/mL (≈ 200 µM)	4 µg/mL (≈ 12.5 µM)	8 µg/mL (≈ 25.1 µM)	Active	Active	Active	
C[C@H]1COc2c(N3CCN(C)CC3)c(F)cc3c(=O)c(C(=O)O)cn1c23.C[C@H]1COc2c(N3CCN(C)CC3)c(F)cc3c(=O)c(C(=O)O)cn1c23.O [LEVOFLOXACIN]	0 mm	2 µg/mL	2 µg/mL	32 µg/mL	≤ 0.5 µg/mL	1 µg/mL				
COc1c(N2C[C@@H]3CCCN[C@@H]3C2)c(F)cc2c(=O)c(C(=O)O)cn(C3CC3)c12 [MOXIFLOXACIN]	0 mm	0.5 µg/mL (≈ 1.25 µM)	0.5 µg/mL (≈ 1.25 µM)	4 µg/mL (≈ 9.96 µM)	≤ 0.25 µg/mL	≤ 0.25 µg/mL				
CO/N=C1\CN(c2nc3c(cc2F)c(=O)c(C(=O)O)cn3C2CC2)CC1CN (configuration not stated) [GEMIFLOXACIN]	0 mm	≤ 0.25 µg/mL	≤ 0.25 µg/mL	1 µg/mL (≈ 2.57 µM)	≤ 0.25 µg/mL	≤ 0.25 µg/mL				
O=C(O)c1cn(C2CC2)c2cc(N3CCNCC3)c(F)cc2c1=O [CIPROFLOXACIN]	0 mm			32 µg/mL (≈ 96.6 µM)	< 0.5 µg/mL	1 µg/mL (≈ 3.02 µM)	Active	Active	Active	
CN(C)[C@@H]1C(O)=C(C(N)=O)C(=O)[C@@]2(O)C(O)=C3C(=O)c4c(O)cccc4[C@@](C)(O)[C@H]3C[C@@H]12 [TETRACYCLINE]										8 µg/mL (≈ 18 µM)
Cc1c(F)c(N2CCNC(C)C2)cc2c1c(=O)c(C(=O)O)cn2C1CC1 (configuration not stated) [GREPAFLOXACIN]	0 mm	2 µg/mL (≈ 5.56 µM)	2 µg/mL (≈ 5.56 µM)	16 µg/mL (≈ 44.5 µM)	≤ 0.5 µg/mL	1 µg/mL (≈ 2.78 µM)				
